Experimental data reported in ChEMBL document CHEMBL6182941, “Prodrugs Targeting Prostate-Specific Membrane Antigen against Prostate Cancer” (J Med Chem, 2025).

What was measured:
[1] = target: T1, Glutamate carboxypeptidase 2 (Homo sapiens, UniProt Q04609); experiment: Binding affinity to human recombinant PSMA in LNCaP cells assessed as inhibition constant; assay type: cell-based
[2] = target: T2, N-acetylaspartylglutamate synthase A (Homo sapiens, UniProt Q8IXN7); experiment: Binding affinity to NAAG synthetase A (unknown origin) assessed as inhibition constant
T2 sequence (Q8IXN7 whole entry): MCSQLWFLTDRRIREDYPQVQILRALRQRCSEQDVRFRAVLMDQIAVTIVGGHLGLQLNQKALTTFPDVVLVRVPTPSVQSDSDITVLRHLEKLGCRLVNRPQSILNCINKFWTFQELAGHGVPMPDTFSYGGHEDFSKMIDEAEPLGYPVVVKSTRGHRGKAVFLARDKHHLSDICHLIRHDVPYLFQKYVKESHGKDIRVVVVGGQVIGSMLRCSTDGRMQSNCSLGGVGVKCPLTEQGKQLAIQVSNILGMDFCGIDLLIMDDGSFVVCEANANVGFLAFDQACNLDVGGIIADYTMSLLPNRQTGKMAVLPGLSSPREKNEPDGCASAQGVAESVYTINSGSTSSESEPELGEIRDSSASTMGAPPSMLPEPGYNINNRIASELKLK

[3] = target: N-acetylated-alpha-linked acidic dipeptidase 2 (Homo sapiens, UniProt Q9Y3Q0); experiment: Binding affinity to NAALAD-2 (unknown origin) assessed as inhibition constant
[4] = target: T1, Glutamate carboxypeptidase 2; experiment: Inhibition of human recombinant PSMA
[5] = system: KB; experiment: Cytotoxicity against human KB cells assessed as reduction in cell growth; assay type: functional, cell-based
[6] = system: A549; experiment: Cytotoxicity against human A549 cells assessed as reduction in cell growth; assay type: functional, cell-based
[7] = system: LNCaP; experiment: Cytotoxicity against human LNCaP cells assessed as cell death measured for 24 hrs; assay type: functional, cell-based
[8] = Cytotoxicity against human PC-3 flu cells assessed as reduction in cell viability incubated for 72 hrs by CCK-8 assay
[9] = Cytotoxicity against human PC3-PIP cells; settings: PC3-PIP cell
[10] = Cytotoxicity against human PC-3 flu cells
[11] = Cytotoxicity against human PC3-PIP cells assessed as reduction in cell viability incubated for 72 hrs by CCK-8 assay
[12] = Antiproliferative activity against human PC3-PIP cells assessed as reduction in cell viability incubated for 72 hrs by XTT assay
[13] = Antitumor activity against human PC3-PIP cells xenografted in […] assessed as reduction in tumor volume at 80 mg/kg, IP; assay type: functional, PC3-PIP cell
[14] = target: Cathepsin B (Homo sapiens, UniProt P07858); experiment: Inhibition of cathepsin B (unknown origin)
[15] = system: CWR22R; experiment: Cytotoxicity against human 22Rv1 cells assessed as reduction in cell viability incubated for 48 hrs by MTT assay; assay type: functional, cell-based; settings: 22Rv1, 48 h
[16] = Cytotoxicity against human HK-2 cells assessed as reduction in cell viability incubated for 48 hrs by MTT assay; assay type: toxicity, cell-based
[17] = system: DU-145; experiment: Cytotoxicity against human DU-145 cells assessed as reduction in cell viability incubated for 72 hrs by MTT assay; settings: DU-145, 72 h
[18] = system: LNCaP; experiment: Cytotoxicity against human LNCaP cells assessed as reduction in cell viability incubated for 72 hrs by MTT assay
[19] = Half life in BALB/c mouse at 67 mg/kg by LC-MS/MS analysis; assay type: ADME, organism-based; settings: in vivo

T1 sequence (Q04609 whole entry): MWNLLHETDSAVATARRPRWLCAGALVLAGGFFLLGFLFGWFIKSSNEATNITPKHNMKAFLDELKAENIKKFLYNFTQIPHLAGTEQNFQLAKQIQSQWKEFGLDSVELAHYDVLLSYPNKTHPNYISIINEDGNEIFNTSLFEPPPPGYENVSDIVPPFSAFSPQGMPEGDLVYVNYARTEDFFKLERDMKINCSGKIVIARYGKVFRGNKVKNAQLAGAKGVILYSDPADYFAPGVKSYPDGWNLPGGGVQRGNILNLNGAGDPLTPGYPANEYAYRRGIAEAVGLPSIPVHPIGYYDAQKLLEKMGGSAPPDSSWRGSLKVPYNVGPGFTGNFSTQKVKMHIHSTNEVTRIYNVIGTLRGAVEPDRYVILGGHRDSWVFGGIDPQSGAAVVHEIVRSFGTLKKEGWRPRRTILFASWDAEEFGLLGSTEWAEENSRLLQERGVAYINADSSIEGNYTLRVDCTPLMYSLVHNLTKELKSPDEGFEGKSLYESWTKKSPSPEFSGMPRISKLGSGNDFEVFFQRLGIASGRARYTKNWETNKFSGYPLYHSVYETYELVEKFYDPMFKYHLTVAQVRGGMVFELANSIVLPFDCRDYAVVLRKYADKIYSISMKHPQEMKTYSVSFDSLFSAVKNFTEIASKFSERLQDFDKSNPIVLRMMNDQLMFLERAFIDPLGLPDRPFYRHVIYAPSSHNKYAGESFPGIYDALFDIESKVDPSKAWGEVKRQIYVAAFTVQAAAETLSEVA
Sequence of N-acetylated-alpha-linked acidic dipeptidase 2 (Q9Y3Q0 whole entry): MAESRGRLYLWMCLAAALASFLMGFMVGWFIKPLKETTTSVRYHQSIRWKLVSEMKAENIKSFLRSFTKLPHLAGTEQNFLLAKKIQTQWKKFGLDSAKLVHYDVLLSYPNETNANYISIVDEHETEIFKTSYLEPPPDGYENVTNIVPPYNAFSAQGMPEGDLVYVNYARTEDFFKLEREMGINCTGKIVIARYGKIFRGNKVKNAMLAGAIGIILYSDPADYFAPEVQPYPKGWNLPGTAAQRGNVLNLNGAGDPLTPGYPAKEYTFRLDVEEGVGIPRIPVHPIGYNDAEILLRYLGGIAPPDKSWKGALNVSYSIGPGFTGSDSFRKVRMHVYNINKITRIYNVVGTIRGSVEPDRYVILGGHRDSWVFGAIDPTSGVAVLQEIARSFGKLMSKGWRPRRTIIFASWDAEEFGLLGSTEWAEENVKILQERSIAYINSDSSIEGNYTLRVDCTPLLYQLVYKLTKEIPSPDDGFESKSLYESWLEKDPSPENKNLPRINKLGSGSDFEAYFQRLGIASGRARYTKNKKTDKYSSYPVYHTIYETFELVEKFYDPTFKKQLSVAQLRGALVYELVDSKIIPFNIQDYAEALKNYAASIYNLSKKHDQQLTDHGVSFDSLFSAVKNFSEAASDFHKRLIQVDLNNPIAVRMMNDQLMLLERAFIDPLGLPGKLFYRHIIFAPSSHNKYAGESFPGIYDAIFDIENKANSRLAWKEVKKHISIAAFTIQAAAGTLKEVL

NCCCC[C@H](NC(=O)N[C@@H](CCC(=O)O)C(=O)O)C(=O)O
Ki [1]: 12 nM

O=C(O)CC[C@H](NC(=O)N[C@@H](CCC(=O)O)C(=O)O)C(=O)O
Ki [2]: 8 nM

O=C(O)CCC(CP(=O)(O)O)C(=O)O (stereo not given)
Ki [3]: ~0.275 nM

CSC[C@@H](NC(=O)N[C@H](CCC(=O)O)C(=O)O)C(=O)O
IC50 [4]: 15.3 nM

CCCC(=O)OCN(C(=O)[C@@H](NC(=O)[C@H]1CCCCN1C)[C@@H](C)CC)[C@H](C[C@@H](OC(C)=O)c1nc(C(=O)N[C@@H](Cc2ccc(O)cc2)C[C@H](C)C(=O)NNC(=O)OCCSSC[C@H](NC(=O)[C@H](CC(=O)O)NC(=O)[C@H](CC(=O)O)NC(=O)Cc2ccc(CNC(=O)NCCCC[C@@H](NC(=O)N[C@H](CCC(=O)O)C(=O)O)C(=O)O)cc2)C(=O)O)cs1)C(C)C
IC50 [5]: 0.6 nM | IC50 [6]: 0.9 nM | IC50 [7]: ~13 nM

CC[C@@H](C)[C@H]([C@H](CC(=O)N1CCC[C@@H]1[C@@H](OC)[C@H](C)C(=O)N[C@@H](C)[C@H](O)c1ccccc1)OC)N(C)C(=O)[C@H](NC(=O)[C@@H](C(C)C)N(C)C(=O)OCc1ccc(NC(=O)[C@@H](CCCNC(N)=O)NC(=O)[C@@H](NC(=O)CCCCCN2C(=O)CC(SC[C@H](NC(=O)[C@H](CCC(=O)O)NC(=O)[C@H](CCC(=O)O)NC(=O)[C@H](CCC(=O)O)NC(=O)CCCCCNC(=O)[C@H]3CC[C@H](CNC(=O)CC[C@@H](NC(=O)N[C@H](CCC(=O)O)C(=O)O)C(=O)O)CC3)C(=O)NCCCCCC(=O)N[C@@H](CCCCNC(=O)CCCCC[N+]3=C(/C=C/C=C/C=C4/N(C)c5ccc6ccccc6c5C4(C)C)C(C)(C)c4c3ccc3ccccc43)C(=O)O)C2=O)C(C)C)cc1)C(C)C (stereo not given in full)
IC50 [8]: 17 nM | IC50 [9]: 4.34 nM | IC50 [10]: 4.64 nM | IC50 [11]: 0.84 nM

CC[C@@H](C)[C@H]([C@H](CC(=O)N1CCC[C@@H]1[C@@H](OC)[C@H](C)C(=O)N[C@@H](C)[C@H](O)c1ccccc1)OC)N(C)C(=O)[C@@H](NC(=O)[C@H](C(C)C)N(C)C(=O)OCc1ccc(NC(=O)[C@@H](CCCNC(N)=O)NC(=O)[C@H](NC(=O)CCCCCCC(=O)NCCCC[C@@H](NC(=O)N[C@H](CCC(=O)O)C(=O)O)C(=O)O)C(C)C)cc1)C(C)C
IC50 [12]: 3.9 nM | Activity [13]: 62.4 mm3 | IC50 [14]: ~0.04 nM

CC(=O)O[C@H]1C(=O)[C@@]2(C)[C@H]([C@H](OC(=O)c3ccccc3)[C@]3(O)C[C@H](OC(=O)[C@H](OC(=O)CSSCC(=O)NCCNC(=O)CC[C@@H](NC(=O)N[C@H](CCC(=O)O)C(=O)O)C(=O)O)[C@@H](NC(=O)c4ccccc4)c4ccccc4)C(C)=C1C3(C)C)[C@]1(OC(C)=O)CO[C@@H]1C[C@@H]2O
IC50 ([15]; read-out: IC50): 121 nM | IC50 at 48 h [16]: 14.2 nM

CC[C@H](C)[C@@H]([C@@H](CC(=O)N1CCC[C@H]1[C@H](OC)[C@@H](C)C(=O)N[C@H](C)[C@@H](O)c1ccccc1)OC)N(C)C(=O)[C@@H](NC(=O)[C@H](C(C)C)N(C)C(=O)OCc1ccc(NC(=O)[C@H](CCCNC(N)=O)NC(=O)[C@@H](NC(=O)CCCCCN2C(=O)CC(SCCC(=O)NC(Cc3cn(CCOCCNCCCCCCOc4cc(OCCCc5c(C)n[nH]c5C)cc(C(=O)O)c4)nn3)C(=O)NCCCCCC(=O)NCCCC[C@H](NC(=O)N[C@@H](CCC(=O)O)C(=O)O)C(=O)O)C2=O)C(C)C)cc1)C(C)C (stereo not given in full)
IC50 [17]: 313 nM | IC50 [18]: 5.4 nM

C/C=C(/C)C(=O)O[C@H]1C(C)=C2[C@H]([C@@H]1OC(=O)CCCCCCC)[C@@](C)(OC(C)=O)C[C@H](OC(=O)CCCCCCCCCCCNC(=O)C[C@H](N)C(=O)N[C@@H](CCC(=O)N[C@@H](CCC(=O)N[C@@H](CCC(=O)N[C@@H](CCC(=O)O)C(=O)O)C(=O)O)C(=O)O)C(=O)O)[C@@]1(O)[C@H]2OC(=O)[C@@]1(C)O [MIPSAGARGIN]
half-life [19]: 4.9 h

CC(=O)O[C@H]1C(=O)[C@@]2(C)[C@H]([C@H](OC(=O)c3ccccc3)[C@]3(O)C[C@H](OC(=O)[C@H](O)[C@@H](NC(=O)c4ccccc4)c4ccccc4)C(C)=C1C3(C)C)[C@]1(OC(C)=O)CO[C@@H]1C[C@@H]2O [PACLITAXEL]
IC50 [15]: 563 nM
